In PMC11783601, “Analogue-Sensitive Inhibition of Histone Demethylases Uncovers Member-Specific Function in Ribosomal Protein Synthesis” (Journal of the American Chemical Society, 2025):
“Also recorded” adds a separate entry of the source.

Tested on: rRNA transcription in HEK293T cells
Assay: Fixed cell immunofluorescence staining for H3K9me3 and 5FU (BrdU antibody) incorporation into rRNA
Assay type: cell-based, human
Description: Upregulation of protein synthesis is linked to enhanced ribosomal biogenesis driven by the expression and coordinated assembly of the ribosomal RNAs (rRNAs). To systematically investigate the role of KDM4A in rRNA activation, HEK293T cells expressing wild type KDM4A or asKDM4A were briefly (∼15 min) exposed to 5-fluorouridine (5FU), a uridine analogue known to rapidly incorporate into nascent RNAs, in the presence of cell-permeable n-octyl IOX1 or NOL derivative 6B, respectively (Figure 6A). Given that there are about 350 copies of rDNA in the human genome, brief exposure to 5FU ensures the labeling of rRNAs primarily.[49][52] The cells were then fixed and stained with H3K9me3 antibody, along with BrdU antibody which recognizes 5FU, to examine any correlation between histone demethylation and rRNA expression using high-resolution immunofluorescence imaging. Both wild type KDM4A and F185A mutant led to robust increase in 5FU incorporated rRNA levels, while reduction in H3K9me3 signals was observed (Figures 6B,C and S36). […]
19. Fixed cell immunofluorescence staining
Cells were grown on poly-D-lysine (Gibco A3890401) treated glass coverslips (ThermoScientific 12-545-81P) overnight and transfected the next day with 300 ng KDM4A WT/F185A using […] of lipofectamine 2000 (Invitrogen 11668019). The cells were incubated overnight and treated with indicated inhibitor at varying time points. When probing rRNA transcription, cells were incubated with 2 mM 5-Fluorouridine (Sigma F5130) for 15 minutes. […]
20. Quantification of fixed-cell imaging data
TIF images obtained from confocal microscopy experiments were quantified in ImageJ. […]
The mean fluorescent signal was then measured. […]
For the time dependent imaging, cells containing the transfected KDM4A mutant were identified by their HA signal. […] The mean signal was then measured for H3K9me3 or BrdU only within the cells expressing the KDM4A mutant. To compare changes in H3K9me3 or BrdU between trials, the quantification values were normalized to the mean signal at t=0. […]

Compound	5FU incorporation into rRNA (HEK293T cells expressing F185A)	H3K9me3 levels (HEK293T cells expressing F185A)	histone demethylation and 5FU incorporation (HEK293T cells overexpressing wild type KDM4A, 10 µM n-octyl IOX1)
CC(C)CC(NC(=O)C(=O)OCc1cccc(C(F)(F)F)c1)C(=O)O [6B, L-Leu TFMB-ester NOG]	attenuated 5FU incorporation in a dose–response manner	re-emergence of H3K9me3 levels	
CCCCCCCCOC(=O)c1ccc(O)c2ncccc12 [n-octyl IOX1]			inhibited; also recorded: repressed histone demethylation and 5FU incorporation
